In patent publication US20110059977A1 (priority 2006, published 2011):
In brackets after ≈: the same amount, converted by molar mass. Read-outs that look alike come from different tables or passages of the source.

Experiments:
[1] = test system: Mycobacterium bovis BCG; experiment: microbe, parasite or virus in culture; format: cell-based; details: for MIC: Mycobacterium tuberculosis variant bovis BCG, BCG, 144 h
[2] = test system: M. smegmatis; details: cited from earlier work
[3] = test system: M. avium 101; experiment: In vitro tests on Mycobacterium avium (MIC in 7H11 agar medium); format: cell-based; details: for MIC: Mycobacterium avium, 101, read-out: MIC on Mycobacterium avium
Text: All tests are repeated three times.

[4] = test system: Mycobacterium bovis BCG; format: in vivo, C57B1/6 female mice; details: BCG-infected mice, 20 mg/kg/day intraperitoneally, 5 days
[5] = test system: mc^2155 strain of M. smegmatis; experiment: In vitro assays on Mycobacterium smegmatis (MIC, resazurin coloration microdilution method); format: cell-based
Protocol: All molecules to be tested are prepared in dimethylsulfoxide (DMSO) at a concentration of 50 mg/ml and frozen until use.
20 μl of each dilution for each molecule are prepared in 100 μl of the Dubos culture medium (Difco, USA), and then distributed into 96 well plates, at a concentration between 100-0.75 μg/ml.
Control wells containing DMSO alone and ethambutol (Etibi®, Myambutol®) or ofloxacine (synthesis antibiotic belonging to the fluoroquinolone family) are included at a concentration between […].
The plates are covered, sealed and incubated at 37° C. during 48 hours.
Minimal Inhibitory Concentrations (MIC) are determined using the resazurin coloration microdilution method. The powdery resazurin salt (Sigma) is prepared at a concentration of 0.01% (weight/vol) in distilled water, and the solution is then sterilized by 0.22 μm membrane filtration, and kept at 4° C. during one week.
Into the plates as incubated during 48 hours, 30 μl of a resazurin solution are added in each well. The plates are then incubated at 37° C. during 24 hours. The colour variation from blue to pink is indicative of a decrease in resazurin which corresponds to the development of the bacterial colony. The MIC is determined as being the lowest concentration to prevent a colour change. The optical density of each well is measured at 530-630 nm using a micro-plate reader, The MIC is determined by drawing the dose-optical density response curve.

[6] = test system: M. tuberculosis H37Rv; experiment: In vitro tests on Mycobacterium tuberculosis (MIC in 7H11 agar medium)
[7] = read-out: Minimal Inhibitory Concentration MIC (μg/mL)
[8] = read-out: Minimal Inhibitory Concentration MIC (μmol/L)
[9] = Mycobacterium bovis BCG, 6 days at 37° C., 7H9 medium

Molecule | Activity against Mycobacterium bovis BCG in vitro (in words) [1] | MIC [1, 7] [µg/mL] | MIC [1, 8] [µmol/L] | also measured
O=c1ccc2c3c(cc[n+]2CCBr)c2ccccc2n13.[Br-] [N-bromoéthyl-canthin-6-one bromide] | most active | 1 to 5 | 3 to 15.3 | 
O=c1c2ccccc2c2c3c(cc[n+]2[O-])c2ccccc2n13 [N-oxide-benzo[e]canthin-6-one] |  | 10 | 34.8 | 
O=c1ccc2c3c(cc[n+]2[O-])c2ccccc2n13 [N-oxide-canthin-6-one] | most active | 2.5 to 5 | 10.6 to 21.2 | 
NNC(=O)c1ccncc1 [isoniazide, reference compound] |  | 0.1 | 0.73 | Minimal Inhibitory Concentration MIC (μg/mL) [1, 9]: 0.1 µg/mL; Susceptibility of M. smegmatis ([2]; isoniazide 10 μg/mL): resistant; MIC [3]: 0.1 µg/mL (≈ 0.729 µM)
O=c1ccc2nccc3c4ccccc4n1c23 [Canthin-6-one] | most active | 7.5 | 34.1 | Activity against Mycobacterium bovis BCG in vitro (in words) ([1]; listed as Canthin-5-one): surprising efficiency; In vivo antituberculous efficiency (number of bacteria in spleen, liver and lungs; in words) [4]: efficient; Efficiency against Mycobacterium smegmatis (in words) [5]: efficient; Efficiency against Mycobacterium tuberculosis (in words) [6]: efficient; Efficiency against Mycobacterium avium (in words) [3]: efficient
CC1COc2c(N3CCN(C)CC3)c(F)cc3c(=O)c(C(=O)O)cn1c23 (stereo not shown) [ofloxacin] |  |  |  | MIC ([5]; Mycolicibacterium smegmatis, mc^2155 strain, Dubos medium, resazurin, read-out: MIC (CMI) on Mycobacterium smegmatis): 1 µg/mL (≈ 2.77 µM); MIC on Mycobacterium tuberculosis ([6]; H37Rv, 7H11 agar, 21-30 days at 37° C.): 1 µg/mL (≈ 2.77 µM); MIC [3]: 6.2 µg/mL (≈ 17.2 µM)
Nc1cc(=O)n2c3ccccc3c3ccnc1c32 |  | 10 | 42.5 | 
O=c1c2ccccc2c2nccc3c4ccccc4n1c32 [Benzo[e]canthin-6-one] | most active | 2.5 to 5 | 9.2 to 18.4 | 
COc1ccc2c(c1)c1ccnc3ccc(=O)n2c31 [10-methoxy-canthin-6-one] |  | 7.5 | 30 | 
ethambutol [reference compound] |  |  |  | Minimal Inhibitory Concentration MIC (μg/mL) [1, 9]: 5 µg/mL; Minimal Inhibitory Concentration MIC (μmol/L) [1, 9]: 24.5 µmol/L; Susceptibility of M. smegmatis ([2]; ethambutol 5 μg/mL): reacts; MIC (CMI) on Mycobacterium smegmatis ([5]; mc^2155 strain, Dubos medium, resazurin): 0.5 µg/mL
O=c1c2nccnc2c2nccc3c4ccccc4n1c32 [Pyrazine[e]canthin-6-one] |  | 10 | 36.8 | 
